Assay results from ChEMBL document CHEMBL1201862, “PubChem BioAssay data set” (2004).
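Growth conditions: 96-well plates. Treatment: test compound, 48 hours, 5 concentrations. Analysis: linear interpolation between bracketing concentrations; unreached endpoints set to highest concentration. GI50 = concentration required for 50% inhibition of growth.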 Activity calls are given as the source filed them. Rule as the data show it: active = GI50 up to about 1.1 µM and inactive = higher.

Experiments:
Experiment in all cases: NCI anticancer screen, dose series, 48 h
786-0 = tested on: 786-0
A549 = tested on: A549
ACHN = tested on: ACHN
CAKI-1 = tested on: CAKI-1
CCRF-CEM = tested on: CCRF-CEM
COLO 205 = tested on: COLO 205
DLD-1 = tested on: DLD-1
DMS-114 = tested on: DMS-114
DMS-273 = tested on: DMS-273
EKVX = tested on: EKVX
HCC 2998 = tested on: HCC 2998
HCT-116 = tested on: HCT-116
HCT-15 = tested on: HCT-15
HL-60 = tested on: HL-60
HOP-62 = tested on: HOP-62
HOP-92 = tested on: HOP-92
HT-29 = tested on: HT-29
IGROV-1 = tested on: IGROV-1
K562 = tested on: K562
KM-20L2 = tested on: KM-20L2
KM12 = tested on: KM12
LOX IMVI = tested on: LOX IMVI
LXFL 529 = tested on: LXFL 529
M14 = tested on: M14
M19-MEL = tested on: M19-MEL
MOLT-4 = tested on: MOLT-4
Malme-3M = tested on: Malme-3M
NCI-H23 = tested on: NCI-H23
NCI-H460 = tested on: NCI-H460
OVCAR-3 = tested on: OVCAR-3
OVCAR-4 = tested on: OVCAR-4
OVCAR-5 = tested on: OVCAR-5
OVCAR-8 = tested on: OVCAR-8
RPMI-8226 = tested on: RPMI-8226
RXF 393 = tested on: RXF 393
RXF 631 = tested on: RXF 631
SF-268 = tested on: SF-268
SF-295 = tested on: SF-295
SF-539 = tested on: SF-539
SK-MEL-2 = tested on: SK-MEL-2
SK-MEL-5 = tested on: SK-MEL-5
SK-OV-3 = tested on: SK-OV-3
SN12C = tested on: SN12C
SNB-19 = tested on: SNB-19
SNB-75 = tested on: SNB-75
SNB-78 = tested on: SNB-78
SW-620 = tested on: SW-620
TK-10 = tested on: TK-10
U-251 = tested on: U-251
UACC-257 = tested on: UACC-257
UACC-62 = tested on: UACC-62
UO-31 = tested on: UO-31
XF498 = tested on: XF498
A498 = tested on: A498
NCI-H226 = tested on: NCI-H226
NCI-H522 = tested on: NCI-H522
SK-MEL-28 = tested on: SK-MEL-28
SR = tested on: SR

COC(=O)/C=C1\CCC(C)O1 (stereo not given)
GI50 (786-0): > 100 µM (inactive) | GI50 (A549): > 100 µM (inactive) | GI50 (ACHN): > 100 µM (inactive) | GI50 (CAKI-1): > 100 µM (inactive) | GI50 (CCRF-CEM): > 100 µM (inactive) | GI50 (COLO 205): > 100 µM (inactive) | GI50 (DLD-1): > 100 µM (inactive) | GI50 (DMS-114): > 100 µM (inactive) | GI50 (DMS-273): > 100 µM (inactive) | GI50 (EKVX): > 100 µM (inactive) | GI50 (HCC 2998): > 100 µM (inactive) | GI50 (HCT-116): > 100 µM (inactive) | GI50 (HCT-15): > 100 µM | GI50 (HL-60): > 100 µM (inactive) | GI50 (HOP-62): > 100 µM (inactive) | GI50 (HOP-92): 24 µM (inactive) | GI50 (HT-29): > 100 µM (inactive) | GI50 (IGROV-1): > 100 µM (inactive) | GI50 (K562): > 100 µM (inactive) | GI50 (KM-20L2): > 100 µM (inactive) | GI50 (KM12): > 100 µM (inactive) | GI50 (LOX IMVI): > 100 µM (inactive) | GI50 (LXFL 529): > 100 µM (inactive) | GI50 (M14): > 100 µM (inactive) | GI50 (M19-MEL): > 100 µM (inactive) | GI50 (MOLT-4): > 100 µM (inactive) | GI50 (Malme-3M): > 100 µM (inactive) | GI50 (NCI-H23): > 100 µM (inactive) | GI50 (NCI-H460): > 100 µM (inactive) | GI50 (OVCAR-3): > 100 µM (inactive) | GI50 (OVCAR-4): > 100 µM (inactive) | GI50 (OVCAR-5): > 100 µM (inactive) | GI50 (OVCAR-8): > 100 µM (inactive) | GI50 (RPMI-8226): > 100 µM (inactive) | GI50 (RXF 393): > 100 µM (inactive) | GI50 (RXF 631): > 100 µM (inactive) | GI50 (SF-268): > 100 µM (inactive) | GI50 (SF-295): > 100 µM (inactive) | GI50 (SF-539): > 100 µM (inactive) | GI50 (SK-MEL-2): > 100 µM (inactive) | GI50 (SK-MEL-5): > 100 µM (inactive) | GI50 (SK-OV-3): > 100 µM (inactive) | GI50 (SN12C): > 100 µM (inactive) | GI50 (SNB-19): > 100 µM (inactive) | GI50 (SNB-75): 39.5 µM (inactive) | GI50 (SNB-78): > 100 µM (inactive) | GI50 (SW-620): > 100 µM (inactive) | GI50 (TK-10): > 100 µM (inactive) | GI50 (U-251): > 100 µM (inactive) | GI50 (UACC-257): > 100 µM (inactive) | GI50 (UACC-62): > 100 µM (inactive) | GI50 (UO-31): > 100 µM (inactive) | GI50 (XF498): > 100 µM (inactive)

O=C(/C=C/c1ccc(O)cc1)OC[C@@H](O)COC1OC(CO)C(O)C(O)C1O (stereo not given in full)
GI50 (A498): > 100 µM (inactive) | GI50 (A549): > 100 µM (inactive) | GI50 (ACHN): > 100 µM (inactive) | GI50 (CCRF-CEM): > 100 µM (inactive) | GI50 (DMS-114): > 100 µM (inactive) | GI50 (EKVX): > 100 µM (inactive) | GI50 (HCT-116): > 100 µM (inactive) | GI50 (HL-60): > 100 µM (inactive) | GI50 (HOP-62): > 100 µM (inactive) | GI50 (HOP-92): > 100 µM (inactive) | GI50 (HT-29): > 100 µM (inactive) | GI50 (IGROV-1): > 100 µM (inactive) | GI50 (K562): > 100 µM (inactive) | GI50 (KM12): > 100 µM (inactive) | GI50 (M14): > 100 µM (inactive) | GI50 (M19-MEL): > 100 µM (inactive) | GI50 (MOLT-4): > 100 µM (inactive) | GI50 (NCI-H226): 94.2 µM (inactive) | GI50 (NCI-H23): > 100 µM (inactive) | GI50 (NCI-H460): > 100 µM (inactive) | GI50 (NCI-H522): > 100 µM (inactive) | GI50 (OVCAR-5): > 100 µM (inactive) | GI50 (OVCAR-8): > 100 µM (inactive) | GI50 (RXF 393): > 100 µM (inactive) | GI50 (RXF 631): > 100 µM (inactive) | GI50 (SF-295): > 100 µM (inactive) | GI50 (SK-MEL-28): > 100 µM (inactive) | GI50 (SK-OV-3): > 100 µM (inactive) | GI50 (SNB-19): > 100 µM (inactive) | GI50 (SNB-78): > 100 µM (inactive) | GI50 (SR): > 100 µM (inactive) | GI50 (TK-10): > 100 µM (inactive) | GI50 (U-251): > 100 µM (inactive) | GI50 (UACC-257): > 100 µM (inactive) | GI50 (UO-31): > 100 µM (inactive)

COc1cc([C@@H]2c3cc4c(cc3[C@@H](NC(=O)c3cccc(N)c3)C3COC(=O)[C@@H]32)OCO4)cc(OC)c1O (stereo not given in full)
GI50 (786-0): 0.421 µM (active) | GI50 (A498): 0.76 µM (active) | GI50 (A549): 0.0465 µM (active) | GI50 (ACHN): 0.166 µM (active) | GI50 (CAKI-1): 0.333 µM (active) | GI50 (CCRF-CEM): 0.0802 µM (active) | GI50 (COLO 205): 11 µM (inactive) | GI50 (DLD-1): 7.03 µM (inactive) | GI50 (DMS-114): 0.968 µM (active) | GI50 (DMS-273): 0.117 µM (active) | GI50 (EKVX): 2.61 µM (inactive) | GI50 (HCC 2998): 2.21 µM (inactive) | GI50 (HCT-116): 2.28 µM (inactive) | GI50 (HCT-15): 1.99 µM | GI50 (HL-60): 0.233 µM (active) | GI50 (HOP-62): 0.0231 µM (active) | GI50 (HOP-92): 0.946 µM (active) | GI50 (HT-29): 2.83 µM (inactive) | GI50 (IGROV-1): 6.05 µM (inactive) | GI50 (K562): 2.11 µM (inactive) | GI50 (KM-20L2): 2.97 µM (inactive) | GI50 (KM12): 2.42 µM (inactive) | GI50 (LOX IMVI): 0.491 µM (active) | GI50 (LXFL 529): 13.1 µM (inactive) | GI50 (M14): 1.26 µM (inactive) | GI50 (M19-MEL): 3.41 µM (inactive) | GI50 (MOLT-4): < 0.0147 µM (active) | GI50 (Malme-3M): 0.942 µM (active) | GI50 (NCI-H226): 0.236 µM (active) | GI50 (NCI-H23): 0.261 µM (active) | GI50 (NCI-H460): < 0.01 µM (active) | GI50 (OVCAR-3): 4.35 µM (inactive) | GI50 (OVCAR-4): 17.4 µM (inactive) | GI50 (OVCAR-5): 2.58 µM (inactive) | GI50 (OVCAR-8): 1.97 µM (inactive) | GI50 (RPMI-8226): 0.507 µM (active) | GI50 (RXF 393): 3.42 µM (inactive) | GI50 (RXF 631): 0.412 µM (active) | GI50 (SF-268): 0.935 µM (active) | GI50 (SF-295): 0.262 µM (active) | GI50 (SF-539): 0.284 µM (active) | GI50 (SK-MEL-28): 8.63 µM (inactive) | GI50 (SK-MEL-2): 3.3 µM (inactive) | GI50 (SK-MEL-5): 1.66 µM (inactive) | GI50 (SK-OV-3): 1.97 µM (inactive) | GI50 (SN12C): 0.445 µM (active) | GI50 (SNB-19): 0.569 µM (active) | GI50 (SNB-75): 1.48 µM (inactive) | GI50 (SNB-78): 3.92 µM (inactive) | GI50 (SR): < 0.01 µM (active) | GI50 (SW-620): 0.391 µM (active) | GI50 (TK-10): 3.31 µM (inactive) | GI50 (U-251): 0.242 µM (active) | GI50 (UACC-257): 10.7 µM (inactive) | GI50 (UACC-62): 0.619 µM (active) | GI50 (UO-31): 9.06 µM (inactive) | GI50 (XF498): 1.11 µM (active)
